Source: patent US11377425B1, “Small molecule modulators of IL-17” (LEO Pharma A/S, priority 2018, dated 2022)

Each compound was assayed against T1, human IL-17AA (Homo sapiens, UniProt Q16552) (assay: IL-8 release assay in human epithelial keratinocytes adult (HEKa)). Settings: HEKa cells, 3 ng/mL HEK-human IL-17AA + 10 ng/mL human TNFalpha; read-out: Rel EC50 IL-8 release assay.
T1 construct: host or cells: HEK (human embryonic kidney) cells
T1 sequence (Q16552 24-155): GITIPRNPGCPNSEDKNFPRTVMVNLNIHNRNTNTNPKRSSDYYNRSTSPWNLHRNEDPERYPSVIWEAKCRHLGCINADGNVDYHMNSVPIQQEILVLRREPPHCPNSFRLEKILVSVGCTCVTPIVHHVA
Format: cell-based
Procedure, shortened: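 IL-8 release, quantified by HTRF and normalized to controls, reports IL-17 signaling in HEKa cells treated with compound plus final 3 ng/mL IL-17AA (HEK-derived) and 10 ng/mL TNF-alpha for 68-72 h; TNF-alpha-only wells set 100% inhibition. Four-parameter logistic fits (r^2>0.9) give relative IC50 and Emax; PrestoBlue flags cytotoxicity.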

| SMILES | EC50 [nM] |
| --- | --- |
| Cc1n[nH]c(C)c1-c1ccc(NC(=O)[C@@H](NC(=O)c2ccnn2C)C(C2CCC2)C2CCC2)cc1 [Example 13, N-[(1S)-1-[di(cyclobutyl)methyl]-2-[4-(3,5-dimethyl-1H-pyrazol-4-yl)anilino]-2-oxo-ethyl]-2-methyl-pyrazole-3-carboxamide] | < 100 |
| Cc1n[nH]c(C)c1-c1ccc(NC(=O)[C@H](CC2CCCCC2)NC(=O)c2ccnn2C)cc1 [Example 15, N-[(1S)-1-(cyclohexylmethyl)-2-[4-(3,5-dimethyl-1H-pyrazol-4-yl)anilino]-2-oxo-ethyl] 2-methyl-pyrazole-3-carboxamide] | 100 to 1000 |
| CCn1nccc1C(=O)N[C@@H](CC1CCCCC1)C(=O)Nc1ccc(-c2c(C)n[nH]c2C)cc1 [Example 16, N-[(1S)-1-(cyclohexylmethyl)-2-[4-(3,5-dimethyl-1H-pyrazol-4-yl)anilino]-2-oxo-ethyl]-2-ethyl-pyrazole-3-carboxamide] | 100 to 1000 |
| Cc1n[nH]c(C)c1-c1ccc(NC(=O)[C@H](CC2CCCCC2)NC(=O)c2ccnn2C(C)C)cc1 [Example 17, N-[(1S)-1-(cyclohexylmethyl)-2-[4-(3,5-dimethyl-1H-pyrazol-4-yl)anilino]-2-oxo-ethyl]-2-isopropyl-pyrazole-3-carboxamide] | 100 to 1000 |
| CCn1nccc1C(=O)N[C@H](C(=O)Nc1ccc(-c2c(C)n[nH]c2C)cc1)C1CCC(F)(F)CC1 [Example 18, N-[(1S)-1-(4,4-difluorocyclohexyl)-2-[4-(3,5-dimethyl-1H-pyrazol-4-yl)anilino]-2-oxo-ethyl]-2-ethyl-pyrazole-3-carboxamide] | 100 to 1000 |
| Cc1n[nH]c(C)c1-c1ccc(NC(=O)[C@@H](NC(=O)c2ccnn2C)[C@H]2CCCC(F)(F)C2)cc1 [Example 19, N-[(1S)-1-[(1S)-3,3-difluorocyclohexyl]-2-[4-(3,5-dimethyl-1H-pyrazol-4-yl)anilino]-2-oxo-ethyl]-2-methyl-pyrazole-3-carboxamide] | 100 to 1000 |
| CCn1nccc1C(=O)N[C@H](C(=O)Nc1ccc(-c2c(C)n[nH]c2C)cc1)[C@H]1CCCC(F)(F)C1 [Example 22, N-[(1S)-1-[(1S)-3,3-difluorocyclohexyl]-2-[4-(3,5-dimethyl-1H-pyrazol-4-yl)anilino]-2-oxo-ethyl]-2-ethyl-pyrazole-3-carboxamide] | 100 to 1000 |
| Cc1n[nH]c(C)c1-c1ccc(NC(=O)[C@@H](NC(=O)c2ccnn2C(C)C)[C@H]2CCCC(F)(F)C2)cc1 [Example 23, N-[(1S)-1-[(1S)-3,3-difluorocyclohexyl]-2-[4-(3,5-dimethyl-1H-pyrazol-4-yl)anilino]-2-oxo-ethyl]-2-isopropyl-pyrazole-3-carboxamide] | < 100 |
| Cc1n[nH]c(C)c1-c1ccc(NC(=O)[C@H](Cc2ccccc2Cl)NC(=O)c2ccnn2C(C)C)cc1 [Example 24] | 100 to 1000 |
| Cc1n[nH]c(C)c1-c1ccc(NC(=O)[C@H](Cc2ccccc2Cl)NC(=O)c2ccnn2C)cc1 [Example 25] | > 1000 |
| Cc1n[nH]c(C)c1-c1ccc(NC(=O)[C@@H](NC(=O)c2ccnn2C2CC2)C2CCCCC2)cc1 [Example 27, N-[(1S)-1-cyclohexyl-2-[4-(3,5-dimethyl-1H-pyrazol-4-yl)anilino]-2-oxo-ethyl]-2-cyclopropyl-pyrazole-3-carboxamide] | 100 to 1000 |
| Cc1n[nH]c(C)c1-c1ccc(NC(=O)[C@@H](NC(=O)c2ccnn2C(F)F)C2CCCCC2)cc1 [Example 28, N-[(1S)-1-cyclohexyl-2-[4-(3,5-dimethyl-1H-pyrazol-4-yl)anilino]-2-oxo-ethyl]-2-(difluoromethyl)pyrazole-3-carboxamide] | 100 to 1000 |
| Cc1n[nH]c(C)c1-c1ccc(NC(=O)[C@@H](NC(=O)c2ccnn2CC(F)(F)F)C2CCCCC2)cc1 [Example 29] | 100 to 1000 |
| Cc1n[nH]c(C)c1-c1ccc(NC(=O)C(NC(=O)c2ccnn2C)C(C2CC2)C2CC2)cc1 (centres unmarked) [Example 30, N-[1-(dicyclopropylmethyl)-2-[4-(3,5-dimethyl-1 pyrazol-4-yl)anilino]-2-oxo-ethyl]-2-methyl-pyrazole-3-carboxamide] | 100 to 1000 |
| Cc1n[nH]c(C)c1-c1ccc(NC(=O)[C@@H](NC(=O)c2ccnn2C)[C@H]2CCOc3ccccc32)cc1 [Example 34, N-[(1S)-1-[(4S)-chroman-4-yl]-2-[4-(3,5-dimethyl-1H-pyrazol-4-yl)anilino]-2-oxo-ethyl]-2-methyl-pyrazole-3-carboxamide] | 100 to 1000 |
| CCn1nccc1C(=O)N[C@H](C(=O)Nc1ccc(-c2c(C)n[nH]c2C)cc1)C(C1CCC1)C1CCC1 [Example 36] | < 100 |

| SMILES | EC50 [nM] |
| --- | --- |
| Cc1n[nH]c(C)c1-c1ccc(NC(=O)[C@@H](NC(=O)c2ccnn2C(C)C)C(C2CCC2)C2CCC2)cc1 [Example 39] | < 100 |
| Cc1n[nH]c(C)c1-c1ccc(NC(=O)[C@@H](NC(=O)c2ccnn2C(C)C)[C@H]2CCCC3(CC3)C2)cc1 [Example 41, N-[(1S)-2-[4-(3,5-dimethyl-1H-pyrazol-4-yl)anilino]-2-oxo-1-[(7S)-spiro[2.5]octan-7-yl]ethyl]-2-isopropyl-pyrazole-3-carboxamide] | < 100 |
| Cc1n[nH]c(C)c1-c1ccc(NC(=O)[C@@H](NC(=O)c2ccnn2C)C(C)C)cc1 [Example 42, N-[(1S)-1-[[4-(3,5-dimethyl-1H-pyrazol-4-yl)phenyl]carbamoyl]-2-methyl-propyl]-2-methyl-pyrazole-3-carboxamide; 2,2,2-trifluoroacetic acid] | > 1000 |
| CC[C@H](C)[C@H](NC(=O)c1ccnn1C)C(=O)Nc1ccc(-c2c(C)n[nH]c2C)cc1 [Example 43, N-[(1S,2S)-1-[[4-(3,5-dimethyl-1H-pyrazol-4-yl)phenyl]carbamoyl]-2-methyl-butyl]-2-methyl-pyrazole-3-carboxamide] | 100 to 1000 |
| Cc1n[nH]c(C)c1-c1ccc(NC(=O)[C@H](Cc2ccccc2)NC(=O)c2ccnn2C)cc1 [Example 44, N-[(1S)-1-benzyl-2[4-(3,5-dimethyl-1H-pyrazol-4-yl)anilino]-2-oxo-ethyl]-2-methyl-pyrazole-3-carboxamide] | > 1000 |
| Cc1n[nH]c(C)c1-c1ccc(NC(=O)[C@H](Cc2ccc(O)cc2)NC(=O)c2ccnn2C)cc1 [Example 45, N-[(1S)-2-[4-(3,5-dimethyl-1H-pyrazol-4-yl)anilino]-1-[(4-hydroxyphenyl)methyl]-2-oxo-ethyl]-2-methyl-pyrazole-3-carboxamide] | > 1000 |
| Cc1n[nH]c(C)c1-c1ccc(NC(=O)[C@@H](NC(=O)c2ccnn2CCO)C2CCCCC2)cc1 [Example 46, N-[(1S)-1-cyclohexyl-2-[4-(3,5-dimethyl-1H-pyrazol-4-yl)anilino]-2-oxo-ethyl]-2-(2-hydroxyethyl)pyrazole-3-carboxamide] | 100 to 1000 |
| Cc1n[nH]c(C)c1-c1ccc(NC(=O)[C@@H](NC(=O)c2ccnn2C(C)C)[C@H]2CCOc3ccccc32)cc1 [Example 47, N-[(1S)-1-[(4S)-chroman-4-yl]-2-[4-(3,5-dimethyl-1H-pyrazo1-4-yl)anilino]-2-oxo-ethyl]-2-isopropyl-pyrazole-3-carboxamide] | < 100 |
| Cc1n[nH]c(C)c1-c1ccc(NC(=O)[C@@H](NC(=O)c2cnc(C)n2C)C2CCCCC2)cc1 [Example 48, N-[(1S)-1-cyclohexyl-2-[4-(3,5-dimethyl-1H-pyrazol-4-yl)anilino]-2-oxo-ethyl]-2,3-dimethyl-imidazole-4-carboxamide] | > 1000 |
| Cc1n[nH]c(C)c1-c1ccc(NC(=O)[C@@H](NC(=O)c2cncn2C)C2CCCCC2)cc1 [Example 49, N-[(1S)-1-cyclohexyl-2-[4-(3,5-dimethyl-1H-pyrazol-4-yl)anilino]-2-oxo-ethyl]-3-methyl-imidazole-4-carboxamide] | > 1000 |
| Cc1n[nH]c(C)c1-c1ccc(NC(=O)[C@@H](NC(=O)c2c(C)ncn2C)C2CCCCC2)cc1 [Example 50, N-[(1S)-1-cyclohexyl-2-[4-(3,5-dimethyl-1H-pyrazol-4-yl)anilino]-2-oxo-ethyl]-3,5-dimethyl-imidazole-4-carboxamide] | > 1000 |
| Cc1ncsc1CC(=O)N[C@H](C(=O)Nc1ccc(-c2c(C)n[nH]c2C)cc1)C1CCCCC1 [Example 51, (2S)-2-cyclohexyl-N-[4-(3,5-dimethyl-1H-pyrazol-4-yl)phenyl]-2-[[2-(4-methylthiazol-5-yl)acetyl]amino]acetamide] | > 1000 |
| Cc1ncc(CC(=O)N[C@H](C(=O)Nc2ccc(-c3c(C)n[nH]c3C)cc2)C2CCCCC2)s1 [Example 52, (2S)-2-cyclohexyl-N-[4-(3,5-dimethyl-1H-pyrazol-4-yl)phenyl]-2-[[2-(2-methylthiazol-5-yl)acetyl]amino]acetamide] | > 1000 |
| Cc1n[nH]c(C)c1-c1ccc(NC(=O)[C@@H](NC(=O)Cn2ccnc2C)C2CCCCC2)cc1 [Example 53, (2S)-2-cyclohexyl-N-[4-(3,5-dimethyl-1H-pyrazol-4-yl)phenyl]-2-[[2-(2-methylimidazol-1-yl)acetyl]amino]acetamide] | > 1000 |
| Cc1n[nH]c(C)c1-c1ccc(NC(=O)[C@@H](NC(=O)Cc2ccc(N(C)C)cc2)C2CCCCC2)cc1 [Example 54, (2S)-2-cyclohexyl-2-[[2-(4-dimethylaminophenyl)acetyl]amino]-N-[4-(3,5-dimethyl-1H-pyrazol-4-yl)phenyl]acetamide] | 100 to 1000 |
| Cc1n[nH]c(C)c1-c1ccc(NC(=O)[C@@H](NC(=O)C(F)(F)c2ccccc2)C2CCCCC2)cc1 [Example 55, N-[(1S)-1-cyclohexyl-2-[4-(3,5-dimethyl-1H-pyrazol-4-yl)anilino]-2-oxo-ethyl]-2,2-difluoro-2-phenyl-acetamide] | 100 to 1000 |
